According to PMC7321319, “Comparative Molecular Transporter Properties of Cyclic Peptides Containing Tryptophan and Arginine Residues Formed through Disulfide Cyclization” (Molecules, 2020):

Tested on: LLC-PK1, CCRF-CEM, CRL-1739, MDA-MB-231 and SKOV-3 cell lines
Test: MTS cell viability assay, statements over the whole cell line panel
Format: cell-based
Settings: Dox 5 µM, 24 and 72 h, 37 °C, n = 3
Protocol: To evaluate the cytotoxicity of synthesized linear (C(WR)xC) and cyclic [C(WR)xC] […] Doxorubicin (Dox, 5 µM) was used as a positive control.
The in vitro cytotoxicity of the peptides was evaluated using the human leukemia carcinoma cell line (CCRF-CEM), normal kidney cell line (LLC-PK1), gastric adenocarcinoma (CRL-1739), ovarian (SKOV-3), and breast carcinoma (MDA-MB-231) cell lines to determine the toxicity of the peptides according to the previously reported procedure [17]. CCRF-CEM cells were seeded at 50,000 cells in 0.1 mL per well in 96-well plates. Other cells were seeded at 5,000 cells in 0.1 mL per well in 96-well plates. All cell lines were seeded in RPMI-1640 medium (pH 7.4) containing FBS (10%), 24 h prior to the experiment. […] This generates formazan crystals which are soluble in cell culture medium and can be measured at 490 nm. Cell viability was then determined by measuring the fluorescence intensity at 490 nm using a SpectraMaxM2 microplate spectrophotometer (Molecular Devices, San Jose, CA, USA). The percentage of cell survival was calculated as [(OD value of cells treated with the test mixture of compounds)−(OD value of culture medium)]/[(OD value of control cells) − (OD value of culture medium)] × 100%.

SMILES: COc1cccc2c1C(=O)c1c(O)c3c(c(O)c1C2=O)C[C@@](O)(C(=O)CO)C[C@@H]3O[C@H]1C[C@H](N)[C@H](O)[C@H](C)O1 [Dox, Doxorubicin]
- cytotoxicity (percentage of cell survival), positive control: cytotoxic even at 5 µM
